Source: ChEMBL document CHEMBL5252620, “Introducing Conformational Restraints on 25CN-NBOH: A Selective 5-HT2A Receptor Agonist” (ACS Med Chem Lett, 2023)
Several values for one entry are separate records, joined by “and”; a condition that tells them apart may be missing. Identical values can stand only once. Activity calls are given as the source filed them. No cut-off for these calls is given here.

Legend:
[1] = molecular target: 5-hydroxytryptamine receptor 2A (Homo sapiens, UniProt P28223); assay: Agonist activity at 5-HT2AR (unknown origin) stably expressed in HEK293 cells measured after 1 hr by fluorescence based Ca2+/Fluo-4 assay; format: cell-based
[2] = molecular target: T1, 5-hydroxytryptamine receptor 2C (Homo sapiens) (UniProt P28335); assay: Agonist activity at 5-HT2CR (unknown origin) stably expressed in HEK293 cells at 10 to 100 uM measured after 1 hr by fluorescence based Ca2+/Fluo-4 assay; format: cell-based; settings: filed as agonist, dose 10-100 µM
T1 sequence (whole entry): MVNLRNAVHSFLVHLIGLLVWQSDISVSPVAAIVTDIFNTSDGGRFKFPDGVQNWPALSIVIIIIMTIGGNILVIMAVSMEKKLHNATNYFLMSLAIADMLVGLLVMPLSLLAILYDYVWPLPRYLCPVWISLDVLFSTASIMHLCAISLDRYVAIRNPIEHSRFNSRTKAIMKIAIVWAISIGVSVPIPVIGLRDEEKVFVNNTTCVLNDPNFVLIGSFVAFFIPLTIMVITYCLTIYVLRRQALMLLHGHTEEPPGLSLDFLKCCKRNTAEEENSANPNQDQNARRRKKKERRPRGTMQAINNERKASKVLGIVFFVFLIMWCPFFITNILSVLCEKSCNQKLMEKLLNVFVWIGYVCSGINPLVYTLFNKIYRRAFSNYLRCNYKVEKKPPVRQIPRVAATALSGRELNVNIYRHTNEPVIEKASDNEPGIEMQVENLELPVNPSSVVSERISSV

[3] = molecular target: T1, 5-hydroxytryptamine receptor 2C (Homo sapiens); assay: Agonist activity at 5-HT2CR (unknown origin) stably expressed in HEK293 cells at 30 to 100 uM measured after 1 hr by fluorescence based Ca2+/Fluo-4 assay; format: cell-based; settings: filed as agonist, dose 30-100 µM
[4] = molecular target: T1, 5-hydroxytryptamine receptor 2C (Homo sapiens); assay: Agonist activity at 5-HT2CR (unknown origin) stably expressed in HEK293 cells assessed as maximal response measured after 1 hr by fluorescence based Ca2+/Fluo-4 assay relative to control; format: cell-based; settings: filed as agonist
[5] = molecular target: T2, 5-hydroxytryptamine receptor 2C (Homo sapiens, UniProt P28335)
T2 sequence (P28335 whole entry): T1 sequence (whole entry)
Description: Agonist activity at 5-HT2CR (unknown origin) stably expressed in HEK293 cells measured after 1 hr by fluorescence based Ca2+/Fluo-4 assay

Sequence of 5-hydroxytryptamine receptor 2A (P28223 whole entry): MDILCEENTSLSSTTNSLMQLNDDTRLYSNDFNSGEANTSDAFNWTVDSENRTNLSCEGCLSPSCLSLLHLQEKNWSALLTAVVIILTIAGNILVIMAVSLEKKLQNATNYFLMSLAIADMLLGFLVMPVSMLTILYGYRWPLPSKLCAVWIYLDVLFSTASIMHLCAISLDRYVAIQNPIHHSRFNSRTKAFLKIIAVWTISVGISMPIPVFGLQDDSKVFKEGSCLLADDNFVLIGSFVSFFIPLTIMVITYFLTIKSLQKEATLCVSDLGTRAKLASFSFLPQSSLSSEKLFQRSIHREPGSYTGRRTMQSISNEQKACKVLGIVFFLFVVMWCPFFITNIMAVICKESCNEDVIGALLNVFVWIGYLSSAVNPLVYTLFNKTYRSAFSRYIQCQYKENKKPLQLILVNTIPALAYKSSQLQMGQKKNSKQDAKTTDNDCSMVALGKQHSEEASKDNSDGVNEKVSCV

With `COc1cc(C[C@@H]2CCC[C@@H](c3ccccc3O)N2)c(OC)cc1C#N` as the compound, how does the EC50 ([1]; read-out: EC50) read?
Its EC50 is 91 nM.

What about the Activity [2] of the same compound?
The Activity was “Active”.

With `COc1cc(CC2CCCC(c3ccccc3O)N2)c(OC)cc1C#N` (centres undefined) as the compound, how does the EC50 ([1]; read-out: EC50) read?
The EC50 was 2700 nM.

And the EC50 ([1]; read-out: pEC50 (converted))?
The EC50 was 3550 nM.

And the Activity [3]?
The Activity was “Active”.

What does the source list for `COc1cc(C[C@H]2CCC[C@H](c3ccccc3O)N2)c(OC)cc1C#N`?
EC50 ([1]; read-out: EC50): 930 nM; Activity [2]: Active

Which Rmax [4] does the source give for `COc1cc(CCNCc2ccccc2O)c(OC)cc1C#N` here?
Its Rmax is 78%.

And the EC50 [5]?
The EC50 was 178 nM and 170 nM.
